Source: patent US20150148417A1, “SYNTHESIS AND BIOLOGICAL STUDIES OF AN ISOMERIC MIXTURE OF (E/Z) ISOXYLITONES AND ITS ANALOGUES” (priority 2013, published 2015)
Entries after “also recorded” stand apart in the source; their conditions may differ.

Legend:
[1] = system: BDNF protein expression; test: BDNF immunohistochemistry in brain samples of chemically kindled mice; type: in vivo; details: for BDNF immunoreactivity in hippocampus and cortex: vs PTZ kindled group; for cumulative BDNF immunoreactivity (ImageJ): vs PTZ kindling
Procedure: Brain samples from chemically kindled mice (as described above) were collected immediately after the last treatment of animals with PTZ. Mice were deeply anesthetized and transcardially perfused with ice-cold 50 mL solution containing phosphate buffer saline (PBS) and heparin [1 mL (5000 I.U.) of heparin added for 500 mL of PBS]. Brains were removed from cranial cavity and were gently rinsed in cold PBS. After washing, they were fixed in ice cold 4% paraformaldehyde solution for 24 hr at 4° C. These samples were then placed in a cryoprotectant i.e. 30% sucrose in PBS until they sank to the bottom of the container. The samples were subsequently stored at −80° C. until further processing. Cryostat sagittal sections were prepared using cryostat (Thermo Electron Corporation, UK), frozen brain sections of 30-μm thickness were cut at −20° C. and collected directly on poly-lysine coated slides. At the time of processing, the cryosections were kept overnight in a humid chamber at room temperature containing PBS buffer. […] On the following day, the sections were re-hydrated by rinsing three times (5 min/rinse) with PBS buffer, followed by incubation in blocking solution (pre-filtered with syringe filter of […] size, consisting of 2% bovine serum albumin (BSA), 2% normal goat serum and 0.1% Tween-20) for 30 min at 37° C. For BDNF IHC, the sections were incubated overnight at 4° C. with the BDNF (N-20) primary antibody sc-546 rabbit IgG (Santa Cruz Biotechnology Inc., USA). Following overnight incubation in the primary antibody, sections were washed three times in PBS and then were incubated with secondary antibody, i.e. Alexa Fluor® 546 goat anti-rabbit IgG secondary antibody (1:100 dilution) from Invitrogen (Life Technologies, NY, USA) for 30 min at 37° C. in the dark, followed by a final washing step with PBS. Negative control slides were prepared without primary antibody to rule out the non-specific tissue binding of antibodies. The stained sections were observed under fluorescent microscope (Nikon ECLIPSE TE2000-S).
The schematic diagrams of brain sections adapted from the mouse brain atlas were used as a visual guide for determining the sub-region boundaries. The image processing program ImageJ (National Institutes of Health, MD, USA) was used to analyze the images. This software helps in multiple imaging system data comparisons, taking density (densitometry) in consideration. For each image, background density was determined and subtracted; the remaining particles were considered to represent BDNF expression. Data were obtained from two sections per […] (n=12 animals per group) and presented as means±S.E.M BDNF immunoreactivity in the amygdala, cortex, dorsal hippocampus and thalamus were centered approximately around 3.6 mm posterior to bregma. Within the hippocampus region, measurements were performed over the layer extending from sub-regions CA1-CA3.

[2] = system: c-Fos protein and mRNA expression; test: c-Fos protein and mRNA expression in brain samples of kindled mice; type: in vivo; details: 30 mg/kg; compared to PTZ-kindled control animals
From the text: Recently we have evaluated the effects of novel anticonvulsant isomeric compounds isoxylitones on the c-Fos protein and mRNA expression in the brain samples of kindled mice and compared it with the normal and untreated kindled groups.

[3] = system: PTZ-induced seizures; test: Subcutaneous pentylenetetrazole (scPTZ)-induced acute seizure test; type: in vivo, mice; details: for mortality: acute scPTZ-induced mortality test
Procedure: Subcutaneous Pentylenetetrazole (scPTZ) Seizure Model (Acute Seizures Model)
Anticonvulsant effects of isoxylitones using scPTZ acute seizure test was evaluated by administering three doses i.e. 15, 20, and 30 mg/kg to groups of six mice, at least 30-40 min before subcutaneous administration of convulsive doses of PTZ (90 mg/kg). After administering PTZ, the mice were isolated and placed separately in a clear plexiglass chamber and closely observed for an hour for the presence or absence of different types of seizure patterns i.e. onset of body twitches, threshold seizures, generalized seizures with loss of righting reflex, loss of righting reflex with tonic forelimb seizures, loss of righting reflex with tonic forelimb and hind limb seizures (Table 1). The protection from PTZ-induced mortality was also monitored within 24 hours. In all experiments, diazepam (7.5 mg/kg i.p.) was used as a drug control.
Subcutaneous Pentylenetetrazole-Induced Seizure Test (scPTZ-Induced Acute Seizures Model): […]

[4] = system: mice; test: Behavioral analysis (Turner scoring); type: in vivo; details: 30 mg/kg, 50 mg/kg and 100 mg/kg
Procedure: The behavioral analysis was performed adopting the modified procedure as described by Turner, 1972. The effects were recorded using a scoring system (scores were allocated according to the intensity of the symptoms from 0-4) as described by Turner i.e. for stereotype behavior 0: no effect; 1: intermittent; 2: continues 3: intense; 4: severe and for spontaneous activity 0: reduced activity; and 4: increased activity. Animals were transferred into individual cages to allow them to acclimatize to the new environment prior to the experiment.
Blind-testing was employed i.e., the experimenter conducting this study was blinded to the treatment given to the animals in order to avoid any biased interpretations.

[5] = system: mice; test: Inverted screen acute neurotoxicity test; type: in vivo; details: 15, 20, 30, 50, 100 mg/kg i.p.; 5, 30, 60, 120 minutes
Procedure: The neurotoxic manifestation of isoxylitone was determined by inverted screen acute neurotoxicity test developed by Coughenour et al. in 1977. The apparatus consisted of six 13 cm square platforms of 0.6 cm wire mesh supported by metal bars mounted on a metal rod. The rod was supported at both ends and was inverted through an arc of 180°. Mice were pretested on the apparatus the day preceding the experiment, and those failing the task were not used for the subsequent drug test. Testing was carried out at 5, 30, 60 and 120 minutes following i.p. administration of 15 mg/kg, 20 mg/kg, 30 mg/kg, 50 mg/kg and 100 mg/kg of isoxylitone in groups of 6 mice. Mice unable to climb to an upright position for 1 min duration were rated as failures.

[6] = system: scPTZ-induced kindling; test: scPTZ-induced chemical kindling model of epileptogenesis; type: in vivo, mice; details: PTZ 50 mg/kg on alternate days
Procedure: Once screened in the acute seizure model, we next evaluated the effect of test compound on the development on epilepsy process using chemical kindling model of NMRI mice. […] The kindling was induced according to the modified method of De Sarro [23]. Each treatment group consists of 12 male NMRI mice ranging from 20-25 g. All the groups except normal control were given sub-convulsive dose of PTZ i.e., 50 mg/kg subcutaneously once on alternate day between 9:30-11:00 am. The normal control and drug control groups received daily intraperitoneal dose of saline (0.5 mL of 0.9% NaCl) and diazepam (7.5 mg/kg) respectively. Likewise, the test group was administered with the isoxylitones mixture (30 mg/kg, i.p.) once daily. On the day of PTZ administration, the treatment of saline, diazepam or isoxylitones were given 30-40 minutes before the PTZ. After each PTZ injection, animals were placed in observation chambers for 1 hour, and behavioral seizure activity was rated. Animals were scored according to a pre-validated scoring scale for the severity of the seizure activity they show. Seizure patterns during the gradual development of kindling are classified into five distinct behavioral stages as shown in the Table 1. The cumulative kindling score was then calculated and the experiments were terminated once the PTZ-control group reached the score 5. […]

[7] = system: SD rats; test: Repeated daily dosing toxicity study, 15, 30 and 90 days; type: in vivo; details: 30 mg/kg daily
Procedure: The effective dose of isoxylitones i.e. 30 mg/kg was used in this study. The test was performed in SD rats. The animals divided into three groups and were daily administered with isoxylitones. The first group was sacrificed at the end of 15 days. The second group was sacrificed after 30 days and third group was sacrificed after 90 days. […] At the end, blood was taken via cardiac puncture for biochemistry. Gross anatomical observations were also made for organs as liver, spleen, kidney, heart, and lung and spleen and to examine the organ abnormalities.
The serum levels total bilirubin, GPT, GOT, alkaline phosphatase, and LDH was estimated.

[8] = system: mice; test: Acute toxicity (Lorke's test) with gross behavioral observation; type: in vivo
Procedure: The isoxylitone was tested for acute toxicity (LD50) using Lorke's test. This method provides the acute toxicity data with the least consumption of animals i.e. initially only 12 animals are required; on obtaining the dose causing the death in 50% animals further three more animals is used at the same dose to get the data statistically significant. Briefly, animals were given different doses of isoxylitone i.e., 50 mg/kg, 75 mg/kg, 100 mg/kg, 500 mg/kg and 1000 mg/kg. After 24 and 48 hours, the maximum dose that had not induced mortality was considered as the maximum non-fatal dose. LD50 values and the corresponding confidence intervals were determined by the Litchfield and Wilcoxon methods (SPSS, version, USA). Data were expressed as mean values±SEM and tested with ANOVA and Tukey-Kramer tests.
They were observed continuously for 2 hours after administration of the test compounds and then every 30 minutes for next 3 hours and finally after 24 hours. The CNS stimulation was judged by the following signs and symptoms:
Locomotor activity, ataxia, clonic & tonic convulsions, sedation, catalepsy, crouching, lacrimation, salivation or any other signs which deviate from the normal behavior of the animal under observation.

[9] = isoxylitones 15 mg/kg i.p. before PTZ 90 mg/kg s.c.
[10] = isoxylitones 20 mg/kg i.p. before PTZ 90 mg/kg s.c.
[11] = isoxylitones 30 mg/kg i.p. before PTZ 90 mg/kg s.c.
[12] = diazepam 7.5 mg/kg i.p. before PTZ 90 mg/kg s.c.

## isoxylitones
[1]; isoxylitones 30 mg/kg
  BDNF immunoreactivity in hippocampus and cortex: returned the enhanced BDNF immunoreactivity from PTZ kindling to the normal control levels
  cumulative BDNF immunoreactivity (ImageJ): significantly suppressed
[1]; isoxylitones 30 mg/kg, listed as isoxylitones
  BDNF immunoreactivity in hippocampus and cortex: returned the BDNF levels to normal levels
[2]
  c-Fos expression: significant reduction of c-Fos expression
[3]; 30 mg/kg
  protection from PTZ-induced loss of righting reflex with tonic-forelimb and tonic hind-limb seizures: 100%
[3]; 15 and 20 mg/kg
  prevention of PTZ-induced myoclonic twitches: effectively prevent PTZ-induced myoclonic twitches
  protection from PTZ-induced seizure threshold: unable to provide complete protection
[3]; compounds shown in FIG. 1
  anticonvulsant activity in vivo models: strong anticonvulsant activity
[3]; isoxylitones 15 mg/kg i.p. 40-50 min before PTZ 90 mg/kg s.c., mean ± SEM
  Onset of jerks: 440 ± 55 s
[3]; [9]
  Hind Limb Tonic Extension (HLTE): 1260 ± 20 s
  Mortality protection: 66.7%
  Rearing & falling: 990 ± 33 s
[3]; isoxylitones 15 mg/kg
  mortality: 33.3%
[3]; [10]
  Hind Limb Tonic Extension (HLTE): 0 s
  Mortality protection: 100%
  Onset of jerks: 580 ± 21 s
  Rearing & falling: 1120 ± 40 s
[3]; isoxylitones 20 mg/kg
  mortality: 20.8%
[3]; [11]
  Hind Limb Tonic Extension (HLTE): 0 s
  Mortality protection: 100%
  Onset of jerks: 900 ± 150 s
  Rearing & falling: 0 s
[3]; isoxylitones 30 mg/kg
  mortality: 0%
[3]; isoxylitones given prior to PTZ, 15, 20, 30 mg/kg
  protection from different seizure patterns of PTZ-induced seizures (twitches, body jerks, clonus, generalized seizure): dose-related protection
[4]
  spontaneous motor activity and behavioral signs (ataxia, abdominal contractions, emesis, hyper-excitability, hyper-locomotion, twitches): no alteration in the spontaneous motor activity
[5]
  acute neurotoxicity (motor function): did not show sign of acute neurotoxicity
[6]; isoxylitones 30 mg/kg i.p. once daily, 18 doses, 34 days
  development of kindling (seizure score): did not exhibit seizure score until the end of the kindling experiment; also recorded: complete inhibition in the development of kindling
[7]
  mortality or morbidity: No mortality or morbidity
[8]; 250 mg/kg, approximately 20 minutes after injection
  signs of toxicity / gross behavioral effects: mild cramps and abdominal stretching
[8]; 500 mg/kg
  signs of toxicity / gross behavioral effects: signs of discomfort and mild toxicity; also recorded: Ataxia, complete sedation and drowsiness
[8]; 1000 mg/kg
  signs of toxicity / gross behavioral effects: complete ataxia and sedation
[8]; 50 and 100 mg/kg, over 24 hours
  animals showing signs of toxicity or altered behavior: None of the animals

## CN1C(=O)CN=C(c2ccccc2)c2cc(Cl)ccc21 [Diazepam, diazepam, reference compound]
[1]; diazepam 7.5 mg/kg
  BDNF immunoreactivity in hippocampus and cortex: reduced the levels to controls; also recorded: markedly reduced the immunoreactivity
  cumulative BDNF immunoreactivity (ImageJ): significantly suppressed
[3]; [12]
  Hind Limb Tonic Extension (HLTE): 0 s
  Mortality protection: 100%
  Onset of jerks: 850 ± 20 s
  Rearing & falling: 0 s
[6]; diazepam 7.5 mg/kg daily
  development of kindling (seizure pattern): did not exhibit any seizure pattern till the end of the kindling protocol
